# In patent US5891848A, “Peptide fragments” (Nippon Zoki Pharmaceutical Co., Ltd., priority 1995, dated 1999):
# No end group written: not given here.
# Assays:
# [1] = system: senility-accelerated mice (SAM-P/8 strain); assay: Passive avoidance learning test; type: in vivo, mouse; details: SAM-P/8, sixth month after birth; s.c. once a week from third week after birth; group 1 150 μg/kg/day, group 2 80 μg/kg/day; test trial 24 hours after acquisition trial; compared to control (SAM-P/8); FIG. 1
# Procedure: In a passive avoidance learning test, remembering ability of senility-accelerated mice of the SAM-P/8 strain decreases from the third month from birth. The effect of the peptide of the present invention for improving said learning disability was investigated. Thus, a mouse was placed in front of a dark box and its ability to remember what it learned was measured using the time it took to come into the box as an index. Electric current was turned on in the dark box after the mouse came into the box so that an electric shock was applied. […] The test trial was conducted 24 hours after the acquisition trial.
# The peptide of the present invention was subcutaneously injected once a week since the third week after birth and its effect of improving the passive avoiding ability which was lowered in SAM-P/8 was investigated.
# [2] = system: senility-accelerated mice (SAM-P/8 strain); assay: Water maze task (Morris' water maze task); type: in vivo, mouse
# Description: A platform was placed at 1 cm under the water surface in a circular swimming pool for the experiment and then fine Styrofoam beads were uniformly sprinkled onto the water surface so that a mouse was unable to recognize the platform. Any hint to the mouse in the space around the device (such as persons in charge of the experiment, table, fluorescent light and machines for the experiment) was always kept constant during the experimental period. Four starting points were randomly selected, a mouse was placed into the water, turning its head to the wall of the pool, and its diving time until it escaped to the platform was measured. When the mouse climbed up to the platform, it was left as it was for 15 seconds. […] The case from one starting point was defined as one trial and four trials were done every ten minutes and defined as one block. Four blocks were carried out in total every other day. Senility-accelerated mice (SAM-P/8) which were not administered any compounds of the present invention were used as a control. […] After the above-menfioned four blocks were conducted, the platform was removed, the mouse was permitted to swim for a certain period, and the time for swimming in each of the four areas was measured. […] Therefore, the learning and remembering abilities could be determined measuring the staying time in each of the four areas.
# [3] = system: neuronal death in the CA1 subfields of the hippocampus; assay: Protective effect on cerebral neurons after ischemic insult (common carotid artery occlusion); type: in vivo, Wister-strain rat; details: continuous intracerebroventricular infusion 850 μg/ml; carotid occlusion 15 minutes; histology five days after ischemia; 4 rats/group
# Procedure: Additionally, the effects of the peptides of the present invention on neuronal death in the CA1 subfields of the hippocampus were tested as follows:
# The peptide fragment of the present invention, the 1-29 amino acid residue peptide fragment of bovine aFGF in which Cys, an amino acid at the 16-position, was substituted with Ala or the 1-29 amino acid residue peptide fragment of bovine aFGF in which Cys, an amino acid at the 16-position, was substituted with Ser, was administered by continuous intracerebroventricular infusion (850 μg/ml. respectively) into the lateral cerebral ventricles of Wister-strain rat (250-300 g. 4 rats/a group) and their common carotid arteries were occluded for 15 minutes to induce ischemic insult. Five days after ischemia, the rats were deeply anesthetized with sodium pentobarbital and transcardially perfused. Then, the brains were frozen and cut coronally in 20 μm sections by microtomy, and stained by Nissl bodies. The sections were examined by histological analysis. As a result of the analyses, the protecting effect of the peptide of the present invention on neuronal death in the CA1 subfields of the hippocampus was observed (Ala-substituted peptide; 3/4 rats, Ser-substituted peptide; 4/4 rats).
sequence,measurement,setting,value
FNLPLGNYKKPKLLYASNGGTFLRILPDG,latency (seconds): time until the mouse came into the dark box in the test trial,[1],unexpectedly higher
same,"diving time (latency) until escape to the platform, Block 1 to Block 4","[2]; SAM-P/8, ninth month from birth, dosing as in passive avoidance test, compared to the decrease for control (SAM-P/8), FIG. 2",unexpectedly decreased
same,"staying time in area 3, where the platform was located","[2]; SAM-P/8, platform removed after four blocks, compared to control (SAM-P/8), t-test p<0.001, FIG. 3",unexpectedly higher
same,protecting effect on neuronal death in the CA1 subfields of the hippocampus observed,[3],3/4
